What all share (type): in vivo
Assay [1] deals with Amaranthus retroflexus. As to the kind of experiment: Post-emergence herbicidal efficacy at 80 g/ha, AMARE. The settings on record: rated visually after about 3 weeks vs untreated controls, 100% = plants have died. From the text: (§1) Unwanted plants/weeds: • ABUTH: Abutilon theophrasti • ALOMY: Alopecurus myosuroides • AMARE: Amaranthus retroflexus • DIGSA: Digitaria sanguinalis • ECHCG: Echinochloa crus-galli • KCHSC: Kochia scoparia • LOLRI: Lolium rigidum • MATIN: Matricaria inodora • POAAN: Poa annua • POLCO: Polygonum convolvulus • SETVI: Setaria viridis • STEME: Stellaria media • VERPE: Veronica persica • VIOTR: Viola tricolor A. Post-Emergence Herbicidal Efficacy at 320 g/ha
(§2) Seeds of monocotyledonous and dicotyledonous weeds and crop plants were placed in sandy loam in plastic or organic planting pots, covered with soil and cultivated in a greenhouse under controlled growth conditions. 2 to 3 weeks after sowing, the test plants were treated at the one-leaf stage. The compounds of the invention, formulated in the form of wettable powders (WP) or as emulsion concentrates (EC), were then sprayed onto the green parts of the plants as aqueous suspension or emulsion with addition of 0.5% additive at a water application rate of 600 l/ha (converted). After the test plants had been kept in the greenhouse under optimum growth conditions for about 3 weeks, the activity of the preparations was rated visually in comparison to untreated controls. For example, 100% activity=the plants have died, 0% activity=like control plants.
(§3) Tables B1 to B11 below show the effects of selected compounds of the general formula (I) according to Table 1 on various harmful plants and an application rate corresponding to 80 g/ha, which were obtained by the experimental procedure mentioned above.

In assay [2] the test system is Kochia scoparia. Description: Pre-emergence herbicide efficacy at 80 g/ha, KCHSC. Conditions: scored visually after about 3 weeks vs untreated controls, 100% = plants have died.
Description: as §1
(§4) Seeds of monocotyledonous and dicotyledonous weed plants and crop plants were placed in plastic or organic planting pots and covered with soil. The compounds of the invention, formulated in the form of wettable powders (WP) or as emulsion concentrates (EC), were then applied to the surface of the covering soil as aqueous suspension or emulsion with addition of 0.5% additive at a water application rate equivalent to 600 l/ha. After the treatment, the pots were placed in a greenhouse and kept under good growth conditions for the test plants. After about 3 weeks, the efficacy of the preparations was scored visually in comparison with untreated controls as percentages. For example, 100% activity=the plants have died, 0% activity=like control plants.
(§5) Tables D1 to D12 below show the effects of selected compounds of the general formula (I) according to Table 1 on various harmful plants and an application rate corresponding to 80 g/ha, which were obtained by the experimental procedure mentioned above.

The subject of assay [3] is Kochia scoparia. As to the kind of experiment: Post-emergence herbicidal efficacy at 80 g/ha, KCHSC. Conditions: rated visually after about 3 weeks vs untreated controls, 100% = plants have died.
Description: as §1, §2, §3

For assay [4], the system named is Veronica persica. As to the kind of experiment: Post-emergence herbicidal efficacy at 80 g/ha, VERPE. The settings on record: rated visually after about 3 weeks vs untreated controls, 100% = plants have died.
Description: as §1, §2, §3

Assay [5] relates to Digitaria sanguinalis. Description: Pre-emergence herbicide efficacy at 80 g/ha, DIGSA. Conditions: scored visually after about 3 weeks vs untreated controls, 100% = plants have died.
Description: as §1, §4, §5

For assay [6], the system named is Amaranthus retroflexus. As to the kind of experiment: Pre-emergence herbicide efficacy at 80 g/ha, AMARE. Conditions: scored visually after about 3 weeks vs untreated controls, 100% = plants have died.
Description: as §1, §4, §5

In assay [7] the test system is Amaranthus retroflexus. As to the kind of experiment: Post-emergence herbicidal efficacy at 320 g/ha, AMARE. The settings on record: rated visually after about 3 weeks vs untreated controls, 100% = plants have died.
Description: as §1
(§6) Seeds of mono- and dicotyledonous weed plants were placed in plastic pots in sandy loam soil (doubly sown with in each case one species of mono- or dicotyledonous weed plants per pot), covered with soil and cultivated in a greenhouse under controlled growth conditions. 2 to 3 weeks after sowing, the test plants were treated at the one-leaf stage. The compounds of the invention, formulated in the form of wettable powders (WP) or as emulsion concentrates (EC), were applied to the green parts of the plants as aqueous suspension or emulsion with addition of 0.5% additive at a water application rate equivalent to 600 litres per hectare. After the test plants had been kept in the greenhouse under optimum growth conditions for about 3 weeks, the activity of the preparations was rated visually in comparison to untreated controls.
(§7) For example, 100% activity=the plants have died, 0% activity=like control plants.
(§8) Tables A1 to A10 below show the effects of selected compounds of the general formula (I) according to Table 1 on various harmful plants and at an application rate corresponding to 320 g/ha, which were obtained by the trial procedure specified above.

Assay [8] concerns Veronica persica. Description: Pre-emergence herbicide efficacy at 320 g/ha, VERPE. Conditions: scored visually after about 3 weeks vs untreated controls, 100% = plants have died.
Description: as §1
(§9) Seeds of mono- and dicotyledonous weed plants were placed in plastic pots in sandy loam soil (doubly sown with one species each of mono- or dicotyledonous weed plants per pot) and covered with soil. The compounds of the invention, formulated in the form of wettable powders (WP) or as emulsion concentrates (EC), were then applied to the surface of the covering soil as aqueous suspension or emulsion with addition of 0.5% additive at a water application rate of 600 litres per hectare (converted). After the treatment, the pots were placed in a greenhouse and kept under good growth conditions for the test plants. After about 3 weeks, the efficacy of the preparations was scored visually in comparison with untreated controls as percentages.
as §7
(§10) Tables C1 to C12 below show the effects of selected compounds of the general formula (I) according to Table 1 on various harmful plants and at an application rate corresponding to 320 g/ha, which were obtained by the trial procedure specified above.

The next assay concerns Setaria viridis. As to the kind of experiment: Pre-emergence herbicide efficacy at 320 g/ha, SETVI. Conditions: scored visually after about 3 weeks vs untreated controls, 100% = plants have died.
Description: as §1, §9, §7, §10

The subject of assay [9] is Kochia scoparia. As to the kind of experiment: Pre-emergence herbicide efficacy at 320 g/ha, KCHSC. The settings on record: scored visually after about 3 weeks vs untreated controls, 100% = plants have died.
Description: as §1, §9, §7, §10

The subject of assay [10] is Digitaria sanguinalis. Description: Pre-emergence herbicide efficacy at 320 g/ha, DIGSA. Conditions: scored visually after about 3 weeks vs untreated controls, 100% = plants have died.
Description: as §1, §9, §7, §10

In the next assay the test system is Poa annua. As to the kind of experiment: Pre-emergence herbicide efficacy at 320 g/ha, POAAN. The settings on record: scored visually after about 3 weeks vs untreated controls, 100% = plants have died.
Description: as §1, §9, §7, §10

The subject of assay [11] is Amaranthus retroflexus. As to the kind of experiment: Pre-emergence herbicide efficacy at 320 g/ha, AMARE. The settings on record: scored visually after about 3 weeks vs untreated controls, 100% = plants have died.
Description: as §1, §9, §7, §10

A further assay concerns Matricaria inodora. As to the kind of experiment: Pre-emergence herbicide efficacy at 320 g/ha, MATIN. Conditions: scored visually after about 3 weeks vs untreated controls, 100% = plants have died.
Description: as §1, §9, §7, §10

Assay [12] deals with Kochia scoparia. As to the kind of experiment: Post-emergence herbicidal efficacy at 320 g/ha, KCHSC. Conditions: rated visually after about 3 weeks vs untreated controls, 100% = plants have died.
Description: as §1, §6, §7, §8

The subject of assay [13] is Stellaria media. Description: Post-emergence herbicidal efficacy at 320 g/ha, STEME. Conditions: rated visually after about 3 weeks vs untreated controls, 100% = plants have died.
Description: as §1, §6, §7, §8

In assay [14] the test system is Veronica persica. As to the kind of experiment: Post-emergence herbicidal efficacy at 320 g/ha, VERPE. Conditions: rated visually after about 3 weeks vs untreated controls, 100% = plants have died.
Description: as §1, §6, §7, §8

Assay [15] deals with Stellaria media. As to the kind of experiment: Pre-emergence herbicide efficacy at 320 g/ha, STEME. The settings on record: scored visually after about 3 weeks vs untreated controls, 100% = plants have died.
Description: as §1, §9, §7, §10

Turning to `Clc1cnc(Cc2ccccc2Nc2ncc(Cl)cn2)nc1` [Example 1-51], in the assay with Amaranthus retroflexus [1], the “Post-emergence efficacy at 80 g/ha against AMARE in %” value came to 100%. In the assay on Kochia scoparia [2], the “Pre-emergence efficacy at 80 g/ha against KCHSC in %” value was determined as 100%. Also, the “Post-emergence efficacy at 80 g/ha against KCHSC in %” value with Kochia scoparia [3] came out at 100%. For the same compound, in the assay with Veronica persica [4], the “Post-emergence efficacy at 80 g/ha against VERPE in %” value stood at 80%. Moreover, the “Pre-emergence efficacy at 80 g/ha against DIGSA in %” value in the assay on Digitaria sanguinalis [5] was determined as 80%. Besides, the “Pre-emergence efficacy at 80 g/ha against AMARE in %” value with Amaranthus retroflexus [6] turned out to be 100%.

Take `N#Cc1cccc(Nc2ncc(F)cn2)c1-c1ccc(F)c(F)c1` [Example 1-30]: the “Post-emergence efficacy at 320 g/ha against AMARE in %” value with Amaranthus retroflexus [7] worked out at 100%. The “Pre-emergence efficacy at 320 g/ha against VERPE in %” value in the assay with Veronica persica [8] is 100%. Also, the “Pre-emergence efficacy at 320 g/ha against SETVI in %” value in the assay with Setaria viridis came out at 100%. In the assay with Kochia scoparia [9], the “Pre-emergence efficacy at 320 g/ha against KCHSC in %” value worked out at 90%. Besides, the “Pre-emergence efficacy at 320 g/ha against DIGSA in %” value in the assay with Digitaria sanguinalis [10] stood at 100%. Besides, in the assay on Poa annua, the “Pre-emergence efficacy at 320 g/ha against POAAN in %” value is 90%. In the assay on Amaranthus retroflexus [11], the “Pre-emergence efficacy at 320 g/ha against AMARE in %” value is 100%. The “Pre-emergence efficacy at 320 g/ha against MATIN in %” value in the assay with Matricaria inodora stood at 90%. Moreover, the “Post-emergence efficacy at 320 g/ha against KCHSC in %” value in the assay on Kochia scoparia [12] amounted to 100%. For the same compound, the “Post-emergence efficacy at 320 g/ha against STEME in %” value with Stellaria media [13] is on record as 100%. For the same compound, the “Post-emergence efficacy at 320 g/ha against VERPE in %” value in the assay with Veronica persica [14] is 100%. In the assay with Stellaria media [15], the “Pre-emergence efficacy at 320 g/ha against STEME in %” value turned out to be 100%.

For the compound `N#Cc1cccc(Nc2ncccn2)c1-n1cc(C(F)(F)F)cn1` [Example 1-40], the “Post-emergence efficacy at 320 g/ha against AMARE in %” value in the assay on Amaranthus retroflexus [7] came to 90%. Also, in the assay with Kochia scoparia [9], the “Pre-emergence efficacy at 320 g/ha against KCHSC in %” value is on record as 90%. Moreover, in the assay on Amaranthus retroflexus [11], the “Pre-emergence efficacy at 320 g/ha against AMARE in %” value is 100%. Also, in the assay on Matricaria inodora, the “Pre-emergence efficacy at 320 g/ha against MATIN in %” value was found to be 90%. In addition, the “Post-emergence efficacy at 320 g/ha against VERPE in %” value in the assay with Veronica persica [14] is reported as 90%.

The record behind these values is patent US20250311727A1, “SUBSTITUTED 2-AMINOAZINES AND SALTS THEREOF, AND USE THEREOF AS HERBICIDAL ACTIVE SUBSTANCES” (BAYER AKTIENGESELLSCHAFT, priority 2022, published 2025).
